Measured values from US6541672B1, “Derivatives of benzilidine cyclohexanone, benzilidine cyclopentanone, and benzilidine acetone and their synthesis” (Faculty of Pharmacy, The University of Gadjah Mada, priority 1997, dated 2003).

Experiments:
[1] = test system: S. pheumoniae; assay: Anti bacterial and antifungal activity test; type: cell-based, S. pneumoniae; settings: in DMSO, 37° C. 24 hours
Protocol: (§1) ANTI BATERIAL AND ANTIFUNGAL ACTIVITY TEST
(§2) Sterile medium of Bacto Muller Hinton was melted at 45-50° C. and poured (25 ml) into a sterile Petric dish (100 mm in diameter), and was left at room temperature for 1 hour. The sterility was checked by overnight incubation (37° C.). The media was immediately used. The microorganism used was gram positive and gram negative. The drug solutions of 0.1, 0.2 and 0.4% in DMSO were used. Incubation was performed at 37° C. for 24 hours.

[2] = test system: S. Aureus; assay: Anti bacterial and antifungal activity test; type: cell-based; settings: in DMSO, 37° C. 24 hours
Protocol: as §1, §2

[3] = test system: B. subtilis; assay: Anti bacterial and antifungal activity test; type: cell-based; settings: in DMSO, 37° C. 24 hours
Protocol: as §1, §2

[4] = test system: C. albicans; assay: Anti bacterial and antifungal activity test; type: cell-based; settings: in DMSO, 37° C. 24 hours
Protocol: as §1, §2

[5] = test system: carragenin rat paw edema; assay: Anti inflammatory activity test (Winter, 1962), carragenin rat paw edema; type: in vivo, Wistar rats; settings: peroral in CMC 1%, inhibition of rat paw edema volume, doses 10-80 mg/kg bw
From the text: ANTI INFLAMMATORY ACTIVITY TEST (WINTER, 1962)
Carragenin was used as an inflammatory agent. The volum inhibition of rat paw edema following peroral administration of various doses of the sysnthetic compounds in 1% CMC in comparison to that of control was used to determine the activity of the compounds. In order to evaluate the anti-inflammatory of each compound. Wistar rats (body weight ranging from 200-250 g) were used and divided randomly into 5 groups: one group served as or control and 4 groups were treatment groups. The control group received the vehicle CMC; (Carboxy Methyl Cellulose […]), while the treatment groups received the synthetic compound per orally in CMC 1%. Doses of 10, 20, 40 and 80 mg/kg bw were given to the animals. Where one hour later the animals received a subplantar injection of 0.05 ml of carragenin suspension in saline solution (NaCi 0.9%)- The volumes of rat paw edema were measured immediately and every half an hour following the subplantar injection for 5 hours.

[6] = test system: lipid peroxidation (microsome); assay: Anti oxidation test (Haenen and Bast, 1983), lipid peroxidation; type: biochemical; settings: malondialdehyde (TBA), microsome 2 mg protein/ml, 37° C., absorbance 535 nm
Protocol: ANTI OXIDATION […], 1983) Anti oxidative activity (lipid peroxidation) was determined by measuring the reactive form of thiobarbituric acid, i.e. malondialdehyde. The synthetic compound with final concentration of 0.5; 1.0; 2.0; 4.0 microM was put into glass tubes. […] The mixture was pre-incubated at 37° C. for 5 minutes. Lipid peroxidation was initiated with the addition of ferro sulphate (0.5 ml, 10 microN) and incubated at 37° C. for 5 minutes, the reaction was stopped by addition of aliquot (0.3 ml) to the mixture of TCA, TBA, and BHT (2 ml) in cold. After heating (80° C.) for 15 minutes and centrifugation (15 minutes), absorbance was read at 535 nm.

Compound: O=C(C=Cc1cc(Cl)c(O)c(Cl)c1)C=Cc1cc(Cl)c(O)c(Cl)c1 [GVT-6, 1,5-bis (4-hydroxy-3,5-dichlorophenyl)-1,4-pentadiene-3-one]
- Minimum Inhibition Concentration [1]: 0.05%
- Minimum Inhibition Concentration [2]: 0.25%
- Minimum Inhibition Concentration [3]: 0.30%
- Minimum Inhibition Concentration [4]: 0.25%

Compound: CCc1cc(C=C2CCCC(=Cc3cc(CC)c(O)c(CC)c3)C2=O)cc(CC)c1O [HGV-2]
- ED 50 [5]: 20 mg/kg.bb
- IC50 [6]: 1970 nM

Compound: COc1cc(/C=C2/CCC/C(=C/c3cc(OC)c(O)c(OC)c3)C2=O)cc(OC)c1O [HGV-5]
- ED 50 [5]: 222 mg/kg.bb
- IC50 [6]: 1700 nM

Compound: O=C1C(=Cc2cc(Cl)c(O)c(Cl)c2)CCCC1=Cc1cc(Cl)c(O)c(Cl)c1 [HGV-6]
- Minimum Inhibition Concentration [1]: 0.05%
- ED 50 [5]: 25 mg/kg.bb
- Minimum Inhibition Concentration [2]: 0.35%
- Minimum Inhibition Concentration [3]: 0.25%
- Minimum Inhibition Concentration [4]: 0.25%

Compound: Cc1cc(/C=C2\CC/C(=C\c3cc(C)c(O)c(C)c3)C2=O)cc(C)c1O [PGV-1]
- ED 50 [5]: 86 mg/kg.bb
- IC50 [6]: 2200 nM

Compound: CCc1cc(/C=C2\CC/C(=C\c3cc(CC)c(O)c(CC)c3)C2=O)cc(CC)c1O [PGV-2]
- ED 50 [5]: 80 mg/kg.bb
- IC50 [6]: 2210 nM

Compound: COc1cc(/C=C2/CC/C(=C/c3cc(OC)c(O)c(OC)c3)C2=O)cc(OC)c1O [PGV-5]
- ED 50 [5]: 48 mg/kg.bb
- IC50 [6]: 990 nM

Compound: O=C1C(=Cc2cc(Cl)c(O)c(Cl)c2)CCC1=Cc1cc(Cl)c(O)c(Cl)c1 [PGV-6]
- Minimum Inhibition Concentration [1]: 0.10%
- ED 50 [5]: 20 mg/kg.bb
- IC50 [6]: 14900 nM
- Minimum Inhibition Concentration [2]: 0.25%
- Minimum Inhibition Concentration [3]: 0.20%
- Minimum Inhibition Concentration [4]: 0.25%
